Legend:
[1] = target: T1, Beta-1 adrenergic receptor (Cavia porcellus, UniProt B0FL73); test: Activity at beta-1 adrenergic receptor; conditions: read-out: pA2 (converted)
[2] = target: T1, Beta-1 adrenergic receptor; test: Compound was tested for the biological activity at the Beta-1 adrenergic receptor; conditions: read-out: pA2 (converted)

T1 sequence (B0FL73 whole entry): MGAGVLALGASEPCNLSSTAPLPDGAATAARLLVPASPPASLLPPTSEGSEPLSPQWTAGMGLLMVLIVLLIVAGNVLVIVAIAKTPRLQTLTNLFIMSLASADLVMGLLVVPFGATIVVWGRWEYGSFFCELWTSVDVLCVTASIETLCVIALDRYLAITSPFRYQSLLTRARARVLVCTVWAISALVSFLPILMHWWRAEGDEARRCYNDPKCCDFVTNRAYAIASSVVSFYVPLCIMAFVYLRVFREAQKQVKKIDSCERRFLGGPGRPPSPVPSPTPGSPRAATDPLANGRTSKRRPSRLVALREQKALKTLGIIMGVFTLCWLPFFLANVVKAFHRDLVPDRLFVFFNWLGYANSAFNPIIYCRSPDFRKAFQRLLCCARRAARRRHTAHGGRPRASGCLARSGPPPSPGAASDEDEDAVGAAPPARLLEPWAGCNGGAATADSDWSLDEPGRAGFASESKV

Kb [1] [nM] | Kb [2] [nM] | SMILES
 | 398 | COCCOc1ccc(OCC(O)CNC(C)C)cc1 (stereo not given)
63.1 |  | CCc1ccc(OCC(O)CNC(C)C)cc1 (stereo not given)

The next lines start with the molecule.

SMILES | Kb [1] [nM] | Kb [2] [nM]
CC(C)NCC(O)COc1ccc(OCCOCCc2ccc(F)cc2)cc1 (stereo not given) | 6.31 | 
CC(C)NCC(O)COc1ccc(-c2nc(-c3cccs3)c[nH]2)cc1 (stereo not given) | 1.26 | 
CC(C)NCC(O)COc1ccc(-c2ncc[nH]2)cc1 (stereo not given) | 25.1 | 

Reference: ChEMBL document CHEMBL1125549, “Computer-aided mapping of the beta-adrenoceptor. 1. Explanation for effect of para substitution on blocking activity at the beta-1-adrenoceptor” (J Med Chem, 1992)
